US12551498B2, “Treatment of P53-deficient cancers” (Health Research, Inc., priority 2019, dated 2026)
Where “and” joins values, the source holds several entries; their conditions need not be identical. Equal values may be shown once. Entries after “also recorded” stand apart in the source; their conditions may differ. Read-outs that look alike come from different tables or passages of the source.

Experiments:
[1] = system: p53-p21 signaling in MCF10A cells; test: p53-p21 signaling immunoblot, MCF10A; format: cell-based, human; settings: for p53-p21 signaling response: MCF10A (p53wt)
Procedure: (§1) Immunoblotting: Tumor cells were seeded in a 6-well plate at 300,000 cells/well and treated with various reagents. Whole-cell lysates were prepared using NP40 lysis buffer containing PMSF, Na-Orthovanadate, and protease inhibitor cocktail. Snap-frozen tumor tissues were ground and suspended in NP40 lysis buffer. Protein concentrations in lysates were quantitated and 15 μg of protein/lane were resolved on a 10% SDS-PAGE gel. Proteins were transferred onto a nitrocellulose membrane in 10% Methanol-SDS buffer and probed with appropriate antibodies. ECL reagent was used to visualize immune-complexes on radiographic films.

MDA-MB-231 cells [2] = test: Cytotoxicity assay (methylene blue), MDA-MB-231; format: cell-based, human; settings: single agent, read-out: IC50, cytotoxicity, drug alone
Procedure: (§2) Cells were plated at a density of 5,000 cells/well in a 96 well-plate and then treated with the appropriate drugs at varying concentrations for 24 hours. Media was replenished with media with or without PARP inhibitors and cell were incubated for 96 hours. Cells were stained with 1% Methylene Blue for 30 minutes, rinsed with water, dried and then solubilized in 5% SDS in PBS, and read at 650 nm. IC50 values were generated using GraphPad Prism8 (Version 8.4.2).
(§3) Cytotoxicity Assay: Cells were plated at a density of 5,000 cells/well in a 96 well-plate and then treated with the appropriate drugs at varying concentrations for 24 hours. Media was replenished with media with or without PARP inhibitors and cell were incubated for 96 hours. Cells were stained with 1% Methylene Blue for 30 minutes, rinsed with water, dried and then solubilized in 5% SDS in PBS, and read at 650 nm. IC50 values were generated using GraphPad Prism8 (Version 8.4.2).

[3] = Cytotoxicity assay (methylene blue), MCF10A; format: cell-based, human; settings: human, MCF10A cells (p53wt), single agent, read-out: IC50, cytotoxicity, drug alone
Procedure: as §2, §3

[4] = system: γH2AX in p53mt MDA-MB-231 cells; test: DNA damage marker γH2AX, p53mt cancer cells; format: cell-based, human; settings: p53mt / p53-deficient cells
Procedure: (§4) Cells were grown on glass coverslips (22×22 mm) and treated with inhibitors for various times, then fixed with 4% PFA and permeabilized with 0.05% Triton X-100. For γH2AX staining samples were blocked with 3% milk in PBS for 30 min at room temperature (RT), and then incubated for 1 h with antibodies to γH2AX (1:400) in 1% milk/PBS followed by incubation with Texas red-conjugated secondary antibody (1:500) for 30 min at RT. For evaluation of genomic EdU, cells were grown on glass coverslips, and then pulse-labeled with EdUrd as described for flow cytometry. Cells were fixed at various times with 4% PFA and permeabilized with 0.05% Triton X-100, and then EdU was labeled with Cy3 azide using ‘click-it’ reaction as described above. DNA was labeled with Hoechst 33342 before mounting on glass slides. Fluorescence images were taken with a Plan Apochromat 60×/1.40 NA oil objective at ambient temperature using Nikon TE2000-E inverted microscope equipped with a charge-coupled device camera (CoolSNAP HQ; Photometrics). The images were acquired using MetaVue imaging software (v7.7.3, Molecular Devices). Experiments were repeated twice with representative images shown.
Immunoblotting: Tumor cells were seeded in a 6-well plate at 300,000 cells/well and treated with various reagents. […] Protein concentrations in lysates were quantitated and 15 μg of protein/lane were resolved on a 10% SDS-PAGE gel. […]

γH2AX in MCF10A cells = test: DNA damage marker γH2AX, p53wt MCF10A; format: cell-based, human
Procedure: as §4, §1

MDA-MB-231 cells [5] = test: EdU-removal assay / genomic EdU, MDA-MB-231; format: cell-based, human
Procedure: (§5) All samples were analyzed on an LSRFortessa Cytometer (BD Biosciences) running FACSDiva (Version 6.1.3), and the data were processed using FCS Express 7 (Version 7.04.0016). For the EdUrd pulse experiments, 300,000 cells per well were seeded in a 6-well plate, and the following day media was replaced with base media containing 5% dialyzed FBS. Cells were then incubated with 10 μM EdUrd for two hours, while untreated cells served as the negative control. Following the two-hour pulse, cells were washed twice with DPBS and the media was replenished. Collection of cells began at t=0 hr up to t=72 hr post EdUrd-pulse. Cells were collected using standard trypsinization, washed in 1% BSA in DPBS, and fixed in 4% paraformaldehyde for 15 minutes. Cells underwent two more washes in 1% BSA/DPBS before being permeabilized in 1× saponin buffer. […] Samples were sorted using a BD LSRFortessa cytometer running FACSDiva (Version 6.1.3), and the data were analyzed using ModFit Lt software (Version 5.0.9). […]
(§6) Cells were grown on glass coverslips (22×22 mm) and treated with inhibitors for various times, then fixed with 4% PFA and permeabilized with 0.05% Triton X-100. […] Fluorescence images were taken with a Plan Apochromat 60×/1.40 NA oil objective at ambient temperature using Nikon TE2000-E inverted microscope equipped with a charge-coupled device camera (CoolSNAP HQ; Photometrics). […]

[6] = biological target: thymidylate synthase (TS) (Homo sapiens, UniProt P04818); settings: cited from earlier work
Sequence of thymidylate synthase (TS) (P04818 whole entry, species assumed): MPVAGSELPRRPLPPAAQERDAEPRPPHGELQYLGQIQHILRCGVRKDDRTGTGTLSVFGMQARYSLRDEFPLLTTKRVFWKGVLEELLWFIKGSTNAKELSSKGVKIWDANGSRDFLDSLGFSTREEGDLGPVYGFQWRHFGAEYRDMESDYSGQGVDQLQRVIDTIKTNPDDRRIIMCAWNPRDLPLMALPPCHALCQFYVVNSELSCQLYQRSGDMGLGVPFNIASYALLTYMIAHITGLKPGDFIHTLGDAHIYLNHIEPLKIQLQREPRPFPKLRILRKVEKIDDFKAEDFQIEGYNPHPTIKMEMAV

MDA-MB-231 cells [7] = test: Cell cycle analysis by flow cytometry, p53mt cancer cells; format: cell-based, human
Procedure: as §5
(§7) Flow cytometry: All samples were analyzed on an LSRFortessa Cytometer (BD Biosciences) running FACSDiva (Version 6.1.3), and the data were processed using FCS Express 7 (Version 7.04.0016). […] Samples were sorted using a BD LSRFortessa cytometer running FACSDiva (Version 6.1.3), and the data were analyzed using ModFit Lt software (Version 5.0.9). […]

[8] = system: PARylation activity in MCF10A and MDA-MB-231 cells; test: Inhibition of PARylation activity in cell culture (immunoblot); format: cell-based, human; settings: 24 hrs
Procedure: as §1

[9] = system: p53-deficient cancer cell lines; test: Cytotoxicity assay, p53-deficient (p53mt) cancer cell lines; format: cell-based, human
Procedure: as §2, §3

[10] = system: p53-p21 signaling in MDA-MB-231 cells; test: p53-p21 signaling immunoblot, MDA-MB-231; format: cell-based, human; settings: MDA-MB-231 (p53mt)
Procedure: as §1

MDA-MB-231 tumors = format: in vivo; settings: 5 days-on, 2 days-off
Procedure: (§8) Tumor growth was monitored by measuring tumor diameters with electronic calipers twice/week. Volumes were calculated using the formula (length)×(width)2/2. Mouse weights were measured twice/week. […] Drugs were given at 50 mg/kg by oral gavage on schedule 5-days-on and 2-days-off. At the endpoint, mice were euthanized and subjected to necropsy and organ collection. Tumor tissues were collected for RNA and protein analyses by snap-freezing in liquid nitrogen. Blood was collected for CBC by cardiac puncture.
Statistical significance of data comparisons were determined using the Student's unpaired t-test with a two-tailed distribution. Statistical significance was achieved when P<0.05. […]

[11] = system: BRCA1-deficient cell lines; settings: cited from earlier work
MCF10A cells [12] = test: Cell cycle analysis by flow cytometry, MCF10A; format: cell-based, human; settings: MCF10A (p53wt)
Procedure: as §5, §7

MCF10A cells [13] = test: EdU-removal assay, MCF10A; format: cell-based, human; settings: 0.5 μM Olaparib after 2 hr EdU pulse
Procedure: as §5, §6

MCF10A cells [14] = test: Cytotoxicity assay (methylene blue), MCF10A; format: cell-based, human; settings: MCF10A (p53wt), single agent; read-out: IC50, cytotoxicity, drug alone
Procedure: as §2, §3

MIAPACA-2 tumors = test: MIAPACA-2 subcutaneous pancreatic cancer xenograft in mice; format: in vivo; settings: 50 mg/kg each drug, oral gavage, 5 days-on, 2 days-off
Procedure: as §8, with “calipers” for “calipers twice/week. Volumes were calculated using the formula (length)×(width)2/2. Mouse weights were measured”
Statistical significance was achieved when P<0.05.

[15] = Homo sapiens, MDA-MB-231, MDA-MB-231 (p53mt)

O=c1[nH]c(=O)n([C@H]2C[C@H](O)[C@@H](CO)O2)cc1F [FdUrd, 5-fluoro-2′-deoxyuridine]
p53-p21 signaling response [1]: induced p53-p21 signaling
IC50 (MDA-MB-231 cells [2]; [15]): 5.5 µM
IC50 at 24 h [3]: 1.6 µM
γH2AX (DNA damage) response [4]: induced by 24 hrs and remained at high levels at 48 hrs
γH2AX (DNA damage) response (γH2AX in MCF10A cells): induced transiently at 6 hrs of FdU exposure and declined by 48 hrs

C#Cc1cn([C@H]2C[C@H](O)[C@@H](CO)O2)c(=O)[nH]c1=O [EdUrd, 5-ethynyl-2′-deoxy-uridine]
Increase of EdU+ fraction after EdUrd-pulse (MDA-MB-231 cells [5]; 24 hrs after 2 hr EdUrd pulse, flow cytometry): ~25%
γH2AX (DNA damage) response [4]: continued accumulation of DNA damage signal
γH2AX (DNA damage) response (γH2AX in MCF10A cells): transient increase of γH2AX levels

O=c1[nH]c(=O)n([C@H]2C[C@H](O)[C@@H](CO)O2)cc1C(F)(F)F [TFT, 5-trifluoro-2′-deoxythymidine]
Inhibition of TS [6]: 0.38 nM

COc1ccc(C2=N[C@@H](c3ccc(Cl)cc3)[C@@H](c3ccc(Cl)cc3)N2C(=O)N2CCNC(=O)C2)c(OC(C)C)c1 [Nutlin-3A]
γH2AX (DNA damage) response (γH2AX in MCF10A cells): did not induce DNA damage γH2AX marker

Cn1ncnc1[C@H]1c2n[nH]c(=O)c3cc(F)cc(c23)N[C@@H]1c1ccc(F)cc1 [talazoparib]
p53-p21 signaling response [1]: p21 induction was observed only in p53wt cells
Cell cycle effect (MDA-MB-231 cells [7]): increased G2 fraction at the expense of S phase
Concentration inhibiting PARylation activity in cells [8]: 50 nM
IC50 ([9]; Homo sapiens; read-out: IC50 for cancer cells, PARPi alone): 2 to 4 µM

O=c1[nH]cc(F)c(=O)[nH]1 [5FU, 5-fluoro-uracil]
Cooperation of 5FU with olaparib in cytotoxicity ([9]; olaparib 0.5 μM; tested cell lines): did not cooperate with olaparib; also recorded: does not enhance cytotoxicity

O=C(c1cc(Cc2n[nH]c(=O)c3ccccc23)ccc1F)N1CCN(C(=O)C2CC2)CC1 [olaparib]
Concentration activating p53-p21 signaling ([1]; MCF10A): 200 nM
p53-p21 signaling response [1]: induced p53-p21 signaling
Concentration inducing p53-p21 signaling ([1]; MCF10A, 24 hrs): 0.2 to 0.5 µM
Cell cycle effect (MDA-MB-231 cells [7]): increased G2 fraction at the expense of S phase
p53-p21 signaling response [10]: p21 was not regulated; also recorded: no response was observed
Concentration inhibiting PARylation activity in cells [8]: 100 to 500 nM and 50 to 100 nM
Median survival (time-to-arrive at 300 mm3 tumor size) (MDA-MB-231 tumors; 50 mg/kg each drug, oral gavage): 21 days
Tumor growth (MDA-MB-231 tumors; 50 mg/kg oral gavage): did not affect tumor growth
IC50 [11]: < 1 µM
Effect on removal of EdU (MDA-MB-231 cells [5]; MDA-MB-231, 0.5 μM Olaparib after 2 hr EdU pulse): had no effect
IC50 (MDA-MB-231 cells [2]; [15]): 17.6 µM
IC50 (MDA-MB-231 cells [2]; MDA-MB-231 (p53mt)): 17.4 µM
Cell cycle effect (MCF10A cells [12]): increased G1-population
Effect on removal of EdU (MCF10A cells [13]): significantly delayed removal of EdU
IC50 at 24 h [3]: 14.5 µM
IC50 (MCF10A cells [14]): 15.3 µM
Median survival (time-to-arrive at 500 mm3 tumor size) (MIAPACA-2 tumors): 21 days
IC50 ([9]; Homo sapiens, read-out: IC50 for cancer cells, PARPi alone): 16 to 24 µM
